Reference: patent publication US9120820B2, “Fluorescent molecular probes for use in assays that measure test compound competitive binding with SAM-utilizing proteins” (CAYMAN CHEMICAL COMPANY, INCORPORATED, priority 2011, dated 2015)

Tests used:
Format in all cases: biochemical
PRMT1 = biological target: T1, PRMT1 (Homo sapiens, UniProt Q99873); assay: Radiometric methyltransferase assay, PRMT1; details: PRMT1 100 nM; compound 10 μM, 1 μM, or 0.1 μM; FIG. 13
T1 construct: purchased Cayman
Protocol: (§1) Reagents: Compound 16A was prepared by the method described in Example 4 and illustrated in FIG. 5. The Compounds 20A-iv and 20A-iii were prepared according to methods described in Example 6 and illustrated in FIG. 7. Enzymes were obtained from the Cayman Catalog with the exception of PRMT4 and PRMT6, which were produced in baculovirus and purified to near homogeneity using Ni-affinity chromatography. Human core histones were purified from HeLa nuclear pellet per the method of Coté et al. S-adenosylmethionine (SAM) was obtained from Sigma-Aldrich (Cat #A7007) and S-[methyl-3H]-SAM was obtained from Perkin-Elmer ([…]). Methods: […] To this was added enzyme diluted to provide a final assay concentration (GLP: 10 nM; PRMT1: 100 nM; SET7/9: 120 nM; PRDM9: 120 nM; PRMT4: 150 nM; PRMT6: 120 nM; G9a: 200 nM) and the compound was allowed to preincubate for 10 minutes at room temperature. […] Samples were mixed immediately after quenching and transferred to a 96-well GFC Uni-Filter microtiter filter plate (Perkin Elmer, Cat#6005174) that contained 50 μl of 20% TCA. Samples were allowed to precipitate for at least 5 minutes at room temperature. The samples were filtered onto the GFC membrane and washed four times with 100 μl of 10% TCA and once with 100 μl of 95% EtOH. To each well was added 25 μl of MicroScint-20 (Perkin-Elmer Cat#6013621) and samples were analyzed using a TopCount NXT microplate scintillation counter. The experiment was performed one time in duplicate for all compound concentrations tested and in triplicate for the vehicle and no enzyme controls. All data was analyzed in GraphPad Prism (v. 5.04).

PRDM9 = biological target: T2, PRDM9 (Homo sapiens, UniProt Q9NQV7); assay: Radiometric methyltransferase assay, PRDM9; details: PRDM9 120 nM; compound 10 μM, 1 μM, or 0.1 μM; FIG. 13
T2 construct: purchased Cayman
Protocol: as §1

SET7/9 = biological target: T3, SET7/9 (Homo sapiens, UniProt Q8WTS6); assay: Radiometric methyltransferase assay, SET7/9; details: SET7/9 120 nM; compound 10 μM, 1 μM, or 0.1 μM; FIG. 13
T3 construct: purchased Cayman 10320
T3 sequence (Q8WTS6 1-366): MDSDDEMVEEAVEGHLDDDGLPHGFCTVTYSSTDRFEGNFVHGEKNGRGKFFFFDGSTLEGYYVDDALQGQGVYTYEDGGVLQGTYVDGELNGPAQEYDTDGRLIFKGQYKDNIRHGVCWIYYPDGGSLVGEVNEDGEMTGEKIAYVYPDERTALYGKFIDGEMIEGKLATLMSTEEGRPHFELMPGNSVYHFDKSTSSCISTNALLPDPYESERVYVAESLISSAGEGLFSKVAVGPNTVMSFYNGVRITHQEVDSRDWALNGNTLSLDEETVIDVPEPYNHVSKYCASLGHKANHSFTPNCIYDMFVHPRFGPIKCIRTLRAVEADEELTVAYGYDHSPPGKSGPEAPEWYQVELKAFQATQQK
Protocol: as §1

PRMT4 = biological target: T4, PRMT4 (Homo sapiens, UniProt Q86X55); assay: Radiometric methyltransferase assay, PRMT4; details: PRMT4 150 nM; compound 10 μM, 1 μM, or 0.1 μM; FIG. 13
T4 construct: made in house
T4 sequence (Q86X55 1-608): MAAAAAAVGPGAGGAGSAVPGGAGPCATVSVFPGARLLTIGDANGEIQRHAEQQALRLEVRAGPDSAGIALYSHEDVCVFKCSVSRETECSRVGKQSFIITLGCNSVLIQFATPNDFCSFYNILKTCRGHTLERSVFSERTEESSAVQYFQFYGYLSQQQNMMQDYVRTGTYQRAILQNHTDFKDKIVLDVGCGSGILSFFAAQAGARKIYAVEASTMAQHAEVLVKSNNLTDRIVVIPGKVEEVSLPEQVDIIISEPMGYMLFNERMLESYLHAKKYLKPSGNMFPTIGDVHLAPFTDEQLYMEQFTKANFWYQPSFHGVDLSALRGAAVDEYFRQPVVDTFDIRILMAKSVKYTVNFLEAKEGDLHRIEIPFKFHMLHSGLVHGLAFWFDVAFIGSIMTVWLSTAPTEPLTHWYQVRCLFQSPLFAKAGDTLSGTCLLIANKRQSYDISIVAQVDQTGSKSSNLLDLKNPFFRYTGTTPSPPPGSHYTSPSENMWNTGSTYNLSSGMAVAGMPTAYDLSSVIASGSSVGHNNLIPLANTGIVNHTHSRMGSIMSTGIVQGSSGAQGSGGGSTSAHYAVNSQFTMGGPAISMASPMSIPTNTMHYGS
Protocol: as §1

PRMT6 = biological target: T5, PRMT6 (Homo sapiens, UniProt Q96LA8); assay: Radiometric methyltransferase assay, PRMT6; details: PRMT6 120 nM; compound 10 μM, 1 μM, or 0.1 μM; FIG. 13
T5 construct: made in house; host or cells: baculovirus expression
Protocol: as §1

T1 sequence (Q99873 whole entry): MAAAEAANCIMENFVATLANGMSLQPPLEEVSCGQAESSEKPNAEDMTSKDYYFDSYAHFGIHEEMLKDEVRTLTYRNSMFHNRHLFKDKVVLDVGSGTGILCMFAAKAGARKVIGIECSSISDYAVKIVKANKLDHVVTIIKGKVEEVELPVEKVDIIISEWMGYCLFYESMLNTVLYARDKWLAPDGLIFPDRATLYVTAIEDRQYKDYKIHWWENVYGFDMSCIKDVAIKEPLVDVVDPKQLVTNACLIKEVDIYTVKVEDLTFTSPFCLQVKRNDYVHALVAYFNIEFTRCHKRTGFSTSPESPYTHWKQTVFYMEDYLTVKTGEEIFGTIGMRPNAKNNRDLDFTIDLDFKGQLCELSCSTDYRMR
T2 sequence (Q9NQV7 whole entry, species assumed): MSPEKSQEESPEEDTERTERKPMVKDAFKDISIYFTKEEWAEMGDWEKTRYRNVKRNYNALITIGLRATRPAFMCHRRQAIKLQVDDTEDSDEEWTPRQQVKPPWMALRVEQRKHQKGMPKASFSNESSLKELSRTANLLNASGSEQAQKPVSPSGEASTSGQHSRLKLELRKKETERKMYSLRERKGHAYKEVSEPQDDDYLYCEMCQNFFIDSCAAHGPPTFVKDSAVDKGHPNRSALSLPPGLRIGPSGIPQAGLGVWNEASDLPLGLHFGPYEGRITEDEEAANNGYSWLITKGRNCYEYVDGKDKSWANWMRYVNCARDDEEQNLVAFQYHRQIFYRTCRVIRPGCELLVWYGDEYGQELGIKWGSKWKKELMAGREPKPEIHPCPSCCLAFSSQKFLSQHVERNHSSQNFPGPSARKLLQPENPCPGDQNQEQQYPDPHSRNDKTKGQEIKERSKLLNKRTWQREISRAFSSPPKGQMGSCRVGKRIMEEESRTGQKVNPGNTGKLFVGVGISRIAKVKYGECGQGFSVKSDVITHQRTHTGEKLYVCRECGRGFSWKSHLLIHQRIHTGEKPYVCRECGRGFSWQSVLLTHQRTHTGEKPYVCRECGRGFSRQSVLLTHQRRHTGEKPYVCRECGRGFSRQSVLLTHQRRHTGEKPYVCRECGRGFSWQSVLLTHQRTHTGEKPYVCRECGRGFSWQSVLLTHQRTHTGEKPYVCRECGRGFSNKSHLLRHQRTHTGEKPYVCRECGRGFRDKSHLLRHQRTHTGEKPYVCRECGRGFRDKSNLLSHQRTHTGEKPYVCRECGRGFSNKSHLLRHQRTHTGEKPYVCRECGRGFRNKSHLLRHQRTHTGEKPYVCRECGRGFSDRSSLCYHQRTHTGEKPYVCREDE
T5 sequence (Q96LA8 whole entry, species assumed): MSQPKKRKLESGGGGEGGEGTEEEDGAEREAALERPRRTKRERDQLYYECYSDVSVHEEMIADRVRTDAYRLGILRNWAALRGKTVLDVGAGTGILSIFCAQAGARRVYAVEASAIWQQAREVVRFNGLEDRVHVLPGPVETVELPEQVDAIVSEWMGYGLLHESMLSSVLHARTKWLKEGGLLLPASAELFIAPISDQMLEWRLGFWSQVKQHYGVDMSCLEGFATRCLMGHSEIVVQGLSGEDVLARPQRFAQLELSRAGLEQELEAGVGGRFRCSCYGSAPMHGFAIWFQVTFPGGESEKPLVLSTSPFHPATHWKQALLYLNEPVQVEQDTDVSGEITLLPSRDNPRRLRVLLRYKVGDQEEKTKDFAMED

Compound	inhibition of enzymatic activity (PRMT1)	inhibition of enzymatic activity (PRDM9)	inhibition of enzymatic activity (SET7/9)	inhibition of enzymatic activity (PRMT4)	inhibition of enzymatic activity (PRMT6)
CSC[C@H]1O[C@@H](n2cnc3c(N)nc(NCCNC(=O)OC(C)(C)C)nc32)[C@H](O)[C@@H]1O [Compound 16A, tert-butyl (2-((6-amino-9-((2R,3R,4S,5S)-3,4-dihydroxy-5-((methylthio)methyl)tetrahydrofuran-2-yl)-9H-purin-2-yl)amino)ethyl)carbamate]	inhibits	inhibits	not dramatically altering the activity	inhibits	not dramatically altering the activity
CCNC(=O)[C@H]1O[C@@H](n2cnc3c(N)nc(Cl)nc32)[C@H](O)[C@@H]1O [Compound 20A-iii, 2-chloroadenosine-5′-N-ethylcarboxamide]	did not show appreciable inhibition	did not show appreciable inhibition	did not show appreciable inhibition	did not show appreciable inhibition	some modest inhibition
CCNC[C@H]1O[C@@H](n2cnc3c(N)nc(Cl)nc32)[C@H](O)[C@@H]1O [Compound 20A-iv, 2-chloroadenosine-5′-N-ethylamine]	did not show appreciable inhibition	did not show appreciable inhibition	did not show appreciable inhibition	did not show appreciable inhibition	did not show appreciable inhibition
